The values below come from US20180334447A1, “2,3,4,5-TETRAHYDROPYRIDIN-6-AMINE DERIVATIVES” (JANSSEN PHARMACEUTICA NV, priority 2015, published 2018).

For test [1], the target named is T1, recombinant BACE2 protein (Homo sapiens, UniProt Q9Y5Z0).
T1 construct: recombinant BACE2 protein in a final concentration of 0.4 μg/ml
T1 sequence (Q9Y5Z0 63-518): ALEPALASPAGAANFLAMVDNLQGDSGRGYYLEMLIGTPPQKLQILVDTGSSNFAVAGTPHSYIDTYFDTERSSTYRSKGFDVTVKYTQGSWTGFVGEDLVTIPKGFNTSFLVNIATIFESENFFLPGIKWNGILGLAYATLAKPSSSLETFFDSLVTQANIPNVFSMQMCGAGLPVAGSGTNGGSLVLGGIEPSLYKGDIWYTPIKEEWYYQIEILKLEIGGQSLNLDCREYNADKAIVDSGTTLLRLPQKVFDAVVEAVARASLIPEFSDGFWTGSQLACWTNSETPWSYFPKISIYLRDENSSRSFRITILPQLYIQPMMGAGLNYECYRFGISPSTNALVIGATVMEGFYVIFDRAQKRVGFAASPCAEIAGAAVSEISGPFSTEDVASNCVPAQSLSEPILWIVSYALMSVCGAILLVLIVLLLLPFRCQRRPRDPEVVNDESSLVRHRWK
In words: BACE2 biochemical FRET based assay. Conditions: BACE2, 450 minutes at room temperature, pH 5.0; read-out: Biochemical FRET based assay pIC50 (converted). The text has this:
(§1) This assay is a Fluorescence Resonance Energy Transfer Assay (FRET) based assay. The substrate for this assay contains the ‘Swedish’ Lys-Met/Asn-Leu mutation of the amyloid precursor protein (APP) beta-secretase cleavage site. This substrate also contains two fluorophores: (7-methoxycoumarin-4-yl) acetic acid (Mca) is a fluorescent donor with excitation wavelength at 320 nm and emission at 405 nm and 2,4-Dinitrophenyl (Dnp) is a proprietary quencher acceptor. […] Upon cleavage by the beta-secretase, the fluorophore Mca is separated from the quenching group Dnp, restoring the full fluorescence yield of the donor. The increase in fluorescence is linearly related to the rate of proteolysis.
Briefly in a 384-well format recombinant BACE2 protein in a final concentration of 0.4 μg/ml is incubated for 450 minutes at room temperature with 10 μM substrate in incubation buffer (50 mM Citrate buffer pH 5.0, 0.05% PEG, no DMSO) in the absence or presence of compound. Next the amount of proteolysis is directly measured by fluorescence measurement at T=0 and T=450 (excitation at 320 nm and emission at 405 nm). Results are expressed in RFU (Relative Fluorescence Units), as difference between T450 and T0.
(§2) A best-fit curve is fitted by a minimum sum of squares method to the plot of % Controlmin versus compound concentration. From this an IC50 value (inhibitory concentration causing 50% inhibition of activity) can be obtained.

The target in test [2] is T2, recombinant BACE1 protein (Homo sapiens, UniProt P56817).
T2 construct: recombinant BACE1 protein in a final concentration of 1 μg/ml
T2 sequence (P56817 46-501): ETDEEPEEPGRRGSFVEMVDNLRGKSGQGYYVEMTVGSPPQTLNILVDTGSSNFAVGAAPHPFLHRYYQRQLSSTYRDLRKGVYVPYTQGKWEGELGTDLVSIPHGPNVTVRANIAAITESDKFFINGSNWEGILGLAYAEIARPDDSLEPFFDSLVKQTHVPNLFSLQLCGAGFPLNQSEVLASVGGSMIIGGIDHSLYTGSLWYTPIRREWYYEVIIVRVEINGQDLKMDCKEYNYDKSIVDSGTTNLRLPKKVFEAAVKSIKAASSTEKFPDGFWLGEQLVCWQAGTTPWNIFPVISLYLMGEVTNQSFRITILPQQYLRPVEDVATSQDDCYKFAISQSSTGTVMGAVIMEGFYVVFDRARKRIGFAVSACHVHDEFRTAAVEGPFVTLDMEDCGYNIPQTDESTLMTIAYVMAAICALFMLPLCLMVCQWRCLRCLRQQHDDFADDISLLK
Nature of the test: BACE1 biochemical FRET based assay - Method 1. The settings on record: BACE1, 120 minutes at room temperature, pH 5.0; read-out: Biochemical FRET based assay - Method 1 pIC50 (converted).
Description: as §1, with “this assay is an APP derived 13 amino acids peptide that contains the” for “this assay contains the”, “cleavage by BACE1, the fluorophore” for “cleavage by the beta-secretase, the fluorophore”
Briefly in a 384-well format recombinant BACE1 protein in a final concentration of 1 μg/ml is incubated for 120 minutes at room temperature with 10 μm substrate in incubation buffer (40 mM Citrate buffer pH 5.0, 0.04% PEG, 4% DMSO) in the absence or presence of compound. Next the amount of proteolysis is directly measured by fluorescence measurement at T=0 and T=120 (excitation at 320 nm and emission at 405 nm). Results are expressed in RFU (Relative Fluorescence Units), as difference between T120 and T0.
as §2

Test [3] concerns Abeta 1-42 produced and secreted into the medium of human neuroblastoma SKNBE2 cells. In words: Cellular αLisa assay in SKNBE2 cells, Abeta 42. In kind it is cell-based. Conditions: SKNBE2 cells expressing hAPP695, incubated for 18 hours; for IC50: Homo sapiens, SKNBE2, 18 h, read-out: Cellular αLisa assay in SKNBE2 cells Abeta 42 pIC50 (converted). The procedure: In two αLisa assays the levels of Abeta 1-42 produced and secreted into the medium of human neuroblastoma SKNBE2 cells are quantified. The assay is based on the human neuroblastoma SKNBE2 expressing the wild type Amyloid Precursor Protein (hAPP695). The compounds are diluted and added to these cells, incubated for 18 hours and then measurements of Abeta 1-42 are taken. Abeta 1-42 are measured by sandwich αLisa. αLisa is a sandwich assay using biotinylated antibody AbN/25 attached to streptavidin coated beads and antibody cAb42/26 conjugated acceptor beads for the detection of Abeta 1-42 respectively. In the presence of Abeta 1-42, the beads come into close proximity. The excitation of the donor beads provokes the release of singlet oxygen molecules that trigger a cascade of energy transfer in the acceptor beads, resulting in light emission. Light emission is measured after 1 hour incubation (excitation at […] and emission at 615 nm).
as §2

Molecules are shown by their SMILES.

With `COc1cnc(C(=O)Nc2ccc(F)c([C@]3(C)CC[C@@](C)(S(C)(=O)=O)C(N)=N3)c2)cn1` [Compound 10], the results for the IC50 in test [1], in test [2] and in test [3] were 21.9 nM, 3.89 nM and 1.12 nM, respectively.
As to `COc1cnc(C(=O)Nc2ccc(F)c([C@]3(C(F)F)CC[C@](C)(C#N)C(N)=N3)c2)cn1` [Compound 11], the IC50 in test [1] is 891 nM; in test [2] it was 138 nM; in test [3], 339 nM.
Consider `COc1cnc(C(=O)Nc2ccc(F)c([C@]3(CF)CC[C@](C)(C#N)C(N)=N3)c2)cn1` [Compound 4], for which the IC50 in test [1] is 5750 nM; in test [2], 851 nM; in test [3] it was 692 nM.
As to `CO[C@@H]1C[C@@](C)(S(C)(=O)=O)C(N)=N[C@]1(C)c1cc(NC(=O)c2cnc(OCF)cn2)ccc1F` [Compound 48a], the IC50 in test [1] is 447 nM; in test [2] it was 24 nM; in test [3], 16.6 nM.
In the case of `COc1cnc(C(=O)Nc2ccc(F)c(C3(C)CCC(C)(C#N)C(N)=N3)c2)cn1` (single isomer, unassigned) [Compound 15], the IC50 in test [1] is 66.1 nM; in test [2], 9.77 nM. The “Cellular αLisa assay in SKNBE2 cells Abeta 42 pIC50” value in test [3] was 8.16.
Consider `COc1cnc(C(=O)Nc2ccc(F)c(C3(CF)CCC(C)(S(C)(=O)=O)C(N)=N3)c2)nc1` (stereo not drawn) [Compound 45], for which the IC50 was 13.5 nM in test [1], 3.16 nM in test [2] and 3.24 nM in test [3].
Take `COc1cnc(C(=O)Nc2ccc(F)c([C@]3(CF)CC[C@](C)(S(C)(=O)=O)C(N)=N3)c2)cn1` [Compound 1]: the IC50 in test [1] was above 10000 nM; in test [2] it was 2630 nM; in test [3], 1350 nM.
As to `COc1cnc(C(=O)Nc2ccc(F)c([C@@]3(C(F)F)CC[C@@](C)(C#N)C(N)=N3)c2)cn1` [Compound 12], the values for the IC50 in test [1], in test [2] and in test [3] were above 10000 nM, 6760 nM and above 8910 nM, respectively.
For the compound `COc1cnc(C(=O)Nc2ccc(F)c([C@]3(CF)CC[C@@](C)(C#N)C(N)=N3)c2)cn1` [Compound 5], the IC50 was 417 nM in test [1], 53.7 nM in test [2] and 50.1 nM in test [3].
For `COc1cnc(C(=O)Nc2ccc(F)c(C3(C)CCC(C)(C#N)C(N)=N3)c2)cn1` (single isomer, unassigned) [Compound 16], the IC50 in test [1] was 1350 nM; in test [2], 257 nM. Also, in test [3], the “Cellular αLisa assay in SKNBE2 cells Abeta 42 pIC50” value is 7.35.
For `C[C@]1(c2cc(NC(=O)c3cnc(OCF)cn3)ccc2F)N=C(N)[C@](C)(S(C)(=O)=O)CC1(F)F` [Compound 24], the IC50 in test [1] is 977 nM; in test [2], 91.2 nM; in test [3], 468 nM.
The corresponding values for `CC1(S(C)(=O)=O)CCC(CF)(c2cc(NC(=O)c3ncc(C(F)(F)F)cn3)ccc2F)N=C1N` (stereo not drawn) [Compound 43] are 64.6 nM, 9.12 nM and 4.47 nM.
Take `COc1cnc(C(=O)Nc2ccc(F)c([C@@]3(C(F)F)CC[C@](C)(C#N)C(N)=N3)c2)cn1` [Compound 13]: the IC50 in test [1] was above 10000 nM; in test [2], above 10000 nM; in test [3], above 8910 nM.
`CC1(S(C)(=O)=O)CCC(CF)(c2cc(NC(=O)c3cnc(C(F)F)cn3)ccc2F)N=C1N` (stereo not drawn) [Compound 42]: the IC50 in test [1] is 22.4 nM; in test [2], 3.8 nM; in test [3] it was 2.4 nM.
Turning to `COc1cnc(C(=O)Nc2ccc(F)c([C@]3(C(F)F)CC[C@@](C)(C#N)C(N)=N3)c2)cn1` [Compound 14], the IC50 is 115 nM in test [1], 11.7 nM in test [2] and 49 nM in test [3].
As for `C[C@]1(S(C)(=O)=O)CC[C@@](CF)(c2cc(NC(=O)c3ccc(F)cn3)ccc2F)N=C1N` [Compound 19], the IC50 in test [1] is 302 nM; in test [2], 380 nM; in test [3], 380 nM.
Regarding `CC1(S(C)(=O)=O)CCC(CF)(c2cc(NC(=O)c3ncc(F)cn3)ccc2F)N=C1N` (stereo not drawn) [Compound 38], the IC50 is 4.17 nM in test [1], 3.89 nM in test [2] and 7.08 nM in test [3].
For `COc1cnc(C(=O)Nc2ccc(F)c([C@@]3(C)N=C(N)[C@](C)(C#N)C[C@@H]3F)c2)cn1` [Compound 8] the same measures were 70.8 nM, 12.9 nM and 13.2 nM.
For `CO[C@H]1C[C@@](C)(C#N)C(N)=N[C@]1(C)c1cc(NC(=O)c2cnc(OCF)cn2)ccc1F` [Compound 49a] the same measures were 324 nM, 33.9 nM and 17 nM.
For the compound `COc1cnc(C(=O)Nc2ccc(F)c([C@@]3(C)N=C(N)[C@@](C)(C#N)C[C@H]3F)c2)cn1` [Compound 6], the IC50 in test [1] is 537 nM; in test [2], 145 nM; in test [3], 240 nM.
In the case of `C[C@@]1(S(C)(=O)=O)CC[C@@](CF)(c2cc(NC(=O)c3ccc(F)cn3)cc(F)c2F)N=C1N` [Compound 47], the IC50 in test [1] is 4.37 nM; in test [2], 3.55 nM; in test [3], 16.6 nM.
The corresponding values for `COc1cnc(C(=O)Nc2ccc(F)c([C@@]3(C)N=C(N)[C@@](C)(C#N)C[C@@H]3F)c2)cn1` [Compound 7] are 562 nM, 79.4 nM and 66.1 nM.
Take `CCOc1cnc(C(=O)Nc2ccc(F)c(C3(CF)CCC(C)(S(C)(=O)=O)C(N)=N3)c2)cn1` (stereo not drawn) [Compound 37]: the IC50 in test [1] is 32.4 nM; in test [2], 3.72 nM; in test [3], 3.47 nM.
For the compound `CC1(S(=O)(=O)C2CC2)CCC(CF)(c2cc(NC(=O)c3ccc(F)cn3)ccc2F)N=C1N` (stereo not drawn) [Compound 25], the IC50 in test [1] is 2.04 nM; in test [2], 2.4 nM; in test [3], 3.72 nM.
For `CC1(S(C)(=O)=O)CCC(CF)(c2cc(NC(=O)c3ncc(Cl)cn3)ccc2F)N=C1N` (stereo not drawn) [Compound 44] the same measures were 3.39 nM, 3.63 nM and 1.15 nM.
With `COc1cnc(C(=O)Nc2ccc(F)c([C@@]3(C)N=C(N)[C@](C)(S(C)(=O)=O)C[C@@H]3F)c2)cn1` [Compound 17], the IC50 in test [1] was 93.3 nM; in test [2], 30.9 nM; in test [3], 14.5 nM.
For `C[C@]1(S(C)(=O)=O)CC(F)(F)[C@@](C)(c2cc(NC(=O)c3cnc(OCF)cn3)ccc2F)N=C1N` [Compound 23], the IC50 is 4680 nM in test [1], 1660 nM in test [2] and 4470 nM in test [3].
The corresponding values for `Cc1nc(C(=O)Nc2ccc(F)c(C3(CF)CCC(C)(S(C)(=O)=O)C(N)=N3)c2)co1` (stereo not drawn) [Compound 40] are 3.31 nM, 4.57 nM and 1.86 nM.
